From US10633338B2, “Binding Function 3 (BF3) site compounds as therapeutics and methods for their use” (THE UNIVERSITY OF BRITISH COLUMBIA, priority 2014, dated 2020)

Key:
androgen receptor (AR) = target: T1, androgen receptor (AR) (Homo sapiens, UniProt P10275, T878A); test: eGFP cellular AR transcription assay; type: cell-based; conditions: LN-ARR2PBeGFP LNCaP cells, 0.1 nM R1881, 3 days incubation; for IC50: read-out: eGFP IC50
T1 construct: stably transfected eGFP-expressing LNCaP human prostate cancer cells (LN-ARR2PB-eGFP) containing an androgen responsive probasin-derived promoter; endogenous in cells; host or cells: LNCaP (LN-ARR2PB-eGFP)
T1 sequence (P10275 1-920 T878A): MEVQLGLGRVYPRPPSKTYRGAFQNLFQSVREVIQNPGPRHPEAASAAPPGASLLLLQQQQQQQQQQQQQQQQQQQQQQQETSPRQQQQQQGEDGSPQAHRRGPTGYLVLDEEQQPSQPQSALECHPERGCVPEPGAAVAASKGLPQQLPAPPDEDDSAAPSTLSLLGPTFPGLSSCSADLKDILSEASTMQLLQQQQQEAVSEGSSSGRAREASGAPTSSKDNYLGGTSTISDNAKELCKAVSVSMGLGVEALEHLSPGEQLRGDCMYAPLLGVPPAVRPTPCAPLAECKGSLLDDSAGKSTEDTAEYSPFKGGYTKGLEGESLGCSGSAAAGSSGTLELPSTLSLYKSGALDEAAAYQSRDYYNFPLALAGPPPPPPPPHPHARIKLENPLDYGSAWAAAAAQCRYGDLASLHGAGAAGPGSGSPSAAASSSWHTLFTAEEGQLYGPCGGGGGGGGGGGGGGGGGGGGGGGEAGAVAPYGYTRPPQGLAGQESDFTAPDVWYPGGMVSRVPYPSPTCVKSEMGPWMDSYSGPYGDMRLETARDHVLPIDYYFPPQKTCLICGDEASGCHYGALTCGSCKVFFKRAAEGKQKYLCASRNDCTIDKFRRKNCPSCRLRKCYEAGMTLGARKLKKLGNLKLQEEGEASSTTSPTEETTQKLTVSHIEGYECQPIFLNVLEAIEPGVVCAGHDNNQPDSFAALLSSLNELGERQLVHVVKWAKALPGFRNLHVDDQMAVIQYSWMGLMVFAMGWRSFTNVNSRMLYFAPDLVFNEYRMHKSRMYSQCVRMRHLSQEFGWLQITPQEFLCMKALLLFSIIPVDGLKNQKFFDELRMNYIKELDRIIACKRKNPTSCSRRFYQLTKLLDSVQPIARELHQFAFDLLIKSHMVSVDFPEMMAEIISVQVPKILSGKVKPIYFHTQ
Summary of the method: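 AR transcriptional activity is read as eGFP expression from a probasin-derived androgen-responsive promoter. Compound titrated 0-100 μM in the presence of 0.1 nM R1881; 35,000 cells/well.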

PSA = test: Prostate Surface Antigen (PSA) assay, PSA excreted into the media; type: cell-based, human; conditions: PSA excreted into media, same plates as eGFP assay, 3 days incubation; for IC50: Homo sapiens, 72 h, read-out: PSA IC50
Experimental: The evaluation of PSA excreted into the media was performed in parallel to the eGFP assay using the same plates (see above description). After the cells were incubated for 3 days 150 μl of the media was taken from each well, and added to 150 μl of PBS.

Cc1cccc2c(-c3ccc4c([N+](=O)[O-])cccc4n3)c[nH]c12 [Compound 13632]
eGFP IC50 (androgen receptor (AR)): Inactive | PSA IC50 (PSA): Inactive

Cc1c(F)ccc2c(-c3ccc4cccc(F)c4n3)c[nH]c12 [Compound 13635]
eGFP IC50 (androgen receptor (AR)): Inactive | PSA IC50 (PSA): Inactive

Cc1cc(C)c2nc(-c3c[nH]c4c(C)c(F)ccc34)ccc2c1 [Compound 13636]
eGFP IC50 (androgen receptor (AR)): Inactive | PSA IC50 (PSA): Inactive

c1ccc2ncc(-c3c[nH]c4ccncc34)cc2c1 [Compound 13637]
eGFP IC50 (androgen receptor (AR)): Inactive | PSA IC50 (PSA): Inactive

COc1ccc(Br)cc1-c1c[nH]c2ccccc12 [Compound 13638]
eGFP IC50 (androgen receptor (AR)): Inactive | PSA IC50 (PSA): Inactive

Fc1ccc(Cl)c2[nH]cc(-c3ccc4ccccc4n3)c12 [Compound 13639]
IC50 (androgen receptor (AR)): 549 nM | IC50 (PSA): 544 nM

CNC(=O)c1cccc2nc(-c3c[nH]c4cc(F)c(F)cc34)ccc12 [Compound 13645]
IC50 (androgen receptor (AR)): 261 nM | IC50 (PSA): 247 nM

Cc1c(F)ccc2c(-c3ccc4ccc(F)cc4n3)c[nH]c12 [Compound 13646]
IC50 (androgen receptor (AR)): 179 nM | IC50 (PSA): 224 nM

Cc1ccc2nc(-n3ccc4cccc(C)c43)ccc2c1 [Compound 13647]
eGFP IC50 (androgen receptor (AR)): Inactive | PSA IC50 (PSA): Inactive

Cc1cccc2ccn(-c3ccc4ccc(F)cc4n3)c12 [Compound 13648]
eGFP IC50 (androgen receptor (AR)): Inactive | PSA IC50 (PSA): Inactive

Cc1ccc2ccc(-n3ccc4cccc(C)c43)nc2c1 [Compound 13649]
eGFP IC50 (androgen receptor (AR)): Inactive | PSA IC50 (PSA): Inactive

Cc1c(F)ccc2c(-c3nc4ccccc4cc3O)c[nH]c12 [Compound 13652]
IC50 (androgen receptor (AR)): 3540 nM | IC50 (PSA): 1760 nM

Brc1cccc2c(-c3cnc4ccccc4c3)c[nH]c12 [Compound 13653]
IC50 (androgen receptor (AR)): 1130 nM | IC50 (PSA): 290 nM

Cc1cccc2c(-c3cccnc3)c[nH]c12 [Compound 13655]
IC50 (androgen receptor (AR)): 1660 nM | IC50 (PSA): 610 nM

Fc1ccc(F)c2c(-c3ccc4ccccc4n3)c[nH]c12 [Compound 13656]
IC50 (androgen receptor (AR)): 990 nM | IC50 (PSA): 460 nM

Cc1cc(F)cc2c(-c3cc(C#N)c4ccccc4n3)c[nH]c12 [Compound 13657]
eGFP IC50 (androgen receptor (AR)): Inactive | PSA IC50 (PSA): Inactive

Cc1ccc2ccc(-c3c[nH]c4c(C)cccc34)nc2c1 [Compound 13658]
IC50 (androgen receptor (AR)): 2850 nM | IC50 (PSA): 2210 nM

Cc1cc(-c2c[nH]c3c(C)c(F)ccc23)nc2ccccc12 [Compound 13659]
eGFP IC50 (androgen receptor (AR)): Inactive | PSA IC50 (PSA): Inactive

Cc1ccc2ccc(-c3c[nH]c4c(C)c(F)ccc34)nc2c1 [Compound 13660]
IC50 (androgen receptor (AR)): 2500 nM | IC50 (PSA): 1890 nM

Cc1cccc2c(-c3nc4ccccc4cc3O)c[nH]c12 [Compound 13661]
eGFP IC50 (androgen receptor (AR)): Inactive | PSA IC50 (PSA): Inactive

Cc1cccc2c(-c3cnc4cccnc4c3)c[nH]c12 [Compound 13662]
eGFP IC50 (androgen receptor (AR)): Inactive | PSA IC50 (PSA): Inactive

c1ccc2nc(-c3n[nH]c4ccccc34)ccc2c1 [Compound 13663]
eGFP IC50 (androgen receptor (AR)): Inactive | PSA IC50 (PSA): Inactive

N#Cc1cc(-c2c[nH]c3cc(F)c(F)cc23)nc2ccccc12 [Compound 13664]
eGFP IC50 (androgen receptor (AR)): Inactive | PSA IC50 (PSA): Inactive

Cc1c(F)ccc2c(-c3ccc4cccc(Cl)c4n3)c[nH]c12 [Compound 13665]
IC50 (androgen receptor (AR)): 270 nM | IC50 (PSA): 210 nM

O=C(O)c1cccc2nc(-c3c[nH]c4c(F)cc(F)cc34)ccc12 [Compound 13666]
eGFP IC50 (androgen receptor (AR)): Inactive | PSA IC50 (PSA): Inactive

O=[N+]([O-])c1cccc2nc(-c3c[nH]c4c(Cl)cc(F)cc34)ccc12 [Compound 13667]
eGFP IC50 (androgen receptor (AR)): Inactive | PSA IC50 (PSA): Inactive

Fc1cc(Cl)c2[nH]cc(-c3ccc4c(F)cccc4n3)c2c1 [Compound 13668]
eGFP IC50 (androgen receptor (AR)): Inactive | PSA IC50 (PSA): Inactive

Fc1cc(Cl)c2[nH]cc(-c3ccc4c(Cl)cccc4n3)c2c1 [Compound 13669]
eGFP IC50 (androgen receptor (AR)): Inactive | PSA IC50 (PSA): Inactive

O=[N+]([O-])c1cccc2nc(-c3c[nH]c4c(F)cc(F)cc34)ccc12 [Compound 13670]
eGFP IC50 (androgen receptor (AR)): Inactive | PSA IC50 (PSA): Inactive

Fc1cc(F)c2[nH]cc(-c3ccc4c(F)cccc4n3)c2c1 [Compound 13671]
eGFP IC50 (androgen receptor (AR)): Inactive | PSA IC50 (PSA): Inactive

Fc1cc(F)c2[nH]cc(-c3ccc4c(Cl)cccc4n3)c2c1 [Compound 13672]
eGFP IC50 (androgen receptor (AR)): Inactive | PSA IC50 (PSA): Inactive

O=C(O)c1cccc2nc(-c3c[nH]c4c(Cl)cc(F)cc34)ccc12 [Compound 13673]
eGFP IC50 (androgen receptor (AR)): Inactive | PSA IC50 (PSA): Inactive

c1ccc2cc(-c3n[nH]c4ccccc34)ccc2c1 [Compound 13674]
IC50 (androgen receptor (AR)): 75 nM | IC50 (PSA): 51 nM

Cc1cccc2c(-c3ccc4c(Br)cccc4n3)c[nH]c12 [Compound 13678]
eGFP IC50 (androgen receptor (AR)): Inactive | PSA IC50 (PSA): Inactive

Cc1cccc2c(-c3ccc4c(Br)ccc(Br)c4n3)c[nH]c12 [Compound 13679]
eGFP IC50 (androgen receptor (AR)): Inactive | PSA IC50 (PSA): Inactive

Cc1ccc(Cl)c2c(-c3ccc4ccccc4n3)c[nH]c12 [Compound 13681]
IC50 (androgen receptor (AR)): 2500 nM | IC50 (PSA): 1700 nM

Fc1cc2[nH]cc(-c3ccc4cccc(C(F)(F)F)c4n3)c2cc1F [Compound 13682]
IC50 (androgen receptor (AR)): 890 nM | IC50 (PSA): 990 nM

Brc1ccc2[nH]cc(-c3ccc4ccccc4n3)c2c1 [Compound 13683]
IC50 (androgen receptor (AR)): 2600 nM | IC50 (PSA): 1910 nM

c1ccc2ncc(-c3n[nH]c4ccccc34)cc2c1 [Compound 13684]
IC50 (androgen receptor (AR)): 1400 nM | IC50 (PSA): 6610 nM

c1ccc2cc(-c3c[nH]c4ccncc34)ccc2c1 [Compound 13685]
eGFP IC50 (androgen receptor (AR)): Inactive | PSA IC50 (PSA): Inactive

Oc1cc2ccccc2cc1-c1nc2ccccc2[nH]1 [Compound 13687]
eGFP IC50 (androgen receptor (AR)): Inactive | PSA IC50 (PSA): Inactive

Fc1cccc2ccc(-c3c[nH]c4ccccc34)nc12 [Compound 13688]
IC50 (androgen receptor (AR)): 69 nM | IC50 (PSA): 68 nM

O=[N+]([O-])c1cccc2nc(-c3c[nH]c4ccccc34)ccc12 [Compound 13689]
eGFP IC50 (androgen receptor (AR)): Inactive | PSA IC50 (PSA): Inactive

Fc1cccc2nc(-c3c[nH]c4ccccc34)ccc12 [Compound 13690]
eGFP IC50 (androgen receptor (AR)): Inactive | PSA IC50 (PSA): Inactive

CNC(=O)c1cccc2nc(-c3c[nH]c4ccccc34)ccc12 [Compound 13691]
IC50 (androgen receptor (AR)): 400 nM | IC50 (PSA): 480 nM

Fc1cc2[nH]cc(-c3ccc4c(F)cccc4n3)c2cc1F [Compound 13693]
IC50 (androgen receptor (AR)): 110 nM | IC50 (PSA): 120 nM

Fc1ccc2ccc(-c3c[nH]c4c(Cl)cccc34)nc2c1 [Compound 13694]
IC50 (androgen receptor (AR)): 70 nM | IC50 (PSA): 67 nM

Fc1cc(F)c2[nH]cc(-c3ccc4cccc(F)c4n3)c2c1 [Compound 13695]
IC50 (androgen receptor (AR)): 69 nM | IC50 (PSA): 87 nM
